Laboratory results from ChEMBL document CHEMBL4831524, “AZD0284, a Potent, Selective, and Orally Bioavailable Inverse Agonist of Retinoic Acid Receptor-Related Orphan Receptor C2” (J Med Chem, 2021).

How the values were obtained:
physchem = details: 1-octanol/phosphate buffered saline, pH 7.4
in vitro = details: human, liver microsomes
cells = details: Homo sapiens, Th17, 96 h
[1] = Apparent permeability across apical to basolateral side in human Caco-2 cells; assay type: ADME, cell-based
[2] = molecular target: Voltage-gated inwardly rectifying potassium channel KCNH2 (Homo sapiens, UniProt Q12809)
Sequence of Voltage-gated inwardly rectifying potassium channel KCNH2 (Q12809 whole entry): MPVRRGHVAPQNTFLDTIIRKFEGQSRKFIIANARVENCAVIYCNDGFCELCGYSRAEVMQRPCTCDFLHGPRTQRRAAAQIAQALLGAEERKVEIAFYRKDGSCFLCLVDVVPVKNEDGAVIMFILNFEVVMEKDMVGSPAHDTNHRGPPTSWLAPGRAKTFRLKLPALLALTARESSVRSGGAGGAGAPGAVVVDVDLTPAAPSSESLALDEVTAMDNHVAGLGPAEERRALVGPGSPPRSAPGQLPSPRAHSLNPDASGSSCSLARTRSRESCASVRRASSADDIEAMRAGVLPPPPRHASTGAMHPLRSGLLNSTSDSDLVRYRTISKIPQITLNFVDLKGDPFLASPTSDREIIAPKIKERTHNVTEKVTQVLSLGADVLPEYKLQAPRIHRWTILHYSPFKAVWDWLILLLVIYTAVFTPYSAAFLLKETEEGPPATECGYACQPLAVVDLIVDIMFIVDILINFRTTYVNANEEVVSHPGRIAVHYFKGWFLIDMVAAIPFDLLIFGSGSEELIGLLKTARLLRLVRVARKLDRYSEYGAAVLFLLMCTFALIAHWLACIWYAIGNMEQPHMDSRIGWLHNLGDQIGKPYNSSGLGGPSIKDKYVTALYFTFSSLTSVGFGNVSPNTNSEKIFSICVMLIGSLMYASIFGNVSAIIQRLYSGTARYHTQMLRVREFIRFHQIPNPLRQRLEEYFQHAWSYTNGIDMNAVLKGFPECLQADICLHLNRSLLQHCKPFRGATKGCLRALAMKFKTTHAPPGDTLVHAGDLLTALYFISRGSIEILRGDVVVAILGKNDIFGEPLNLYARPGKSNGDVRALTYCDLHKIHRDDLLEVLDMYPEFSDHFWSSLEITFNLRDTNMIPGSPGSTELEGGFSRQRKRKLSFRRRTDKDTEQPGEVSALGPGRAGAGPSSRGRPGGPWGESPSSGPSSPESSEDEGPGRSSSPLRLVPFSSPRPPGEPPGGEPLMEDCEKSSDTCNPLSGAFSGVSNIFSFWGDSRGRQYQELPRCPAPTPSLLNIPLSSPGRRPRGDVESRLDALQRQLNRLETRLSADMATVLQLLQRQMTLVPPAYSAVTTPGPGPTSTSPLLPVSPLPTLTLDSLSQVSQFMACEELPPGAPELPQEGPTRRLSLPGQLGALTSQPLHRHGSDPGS

[3] = Intrinsic permeability of compound from apical to basolateral side in human Caco2 cells; assay type: ADME, cell-based; details: Caco-2

Question: Which results are given for `CNS(=O)(=O)c1ccc2c(c1)CN(C=O)C2C(=O)Nc1ccc(C(O)(C(F)(F)F)C(F)(F)F)cc1` (stereo not given)?
Answer: logD (physchem): 2.7; microsomal CLint (in vitro): 6.8 µL/min/mg

Question: With `CCS(=O)(=O)c1ccc(C(Cc2nnco2)C(=O)Nc2ccc(C(O)(C(F)(F)F)C(F)(F)F)cc2)cc1` (stereo not given) as the compound, how does the logD (physchem) read?
Answer: The logD was 2.9.

Question: And the IC50 (cells)?
Answer: Its IC50 is 224 nM.

Question: What about the microsomal CLint (in vitro) of the same compound?
Answer: Its microsomal CLint is under 3 µL/min/mg.

Question: Which results are given for `CCS(=O)(=O)c1ccc(C(NC(=O)CC2CC2)C(=O)Nc2ccc(C(O)(C(F)(F)F)C(F)(F)F)cc2)nc1` (stereo not given)?
Answer: Papp A→B [1]: 1.1 ×10⁻⁶ cm/s; IC50 [2]: 34000 nM; logD (physchem): 3.5; IC50 (cells): 20 nM; Pm [3]: 14.2; microsomal CLint (in vitro): 22 µL/min/mg

Question: For `CCS(=O)(=O)c1ccc(C(NC(=O)Cc2nccs2)C(=O)Nc2ccc(C(O)(C(F)(F)F)C(F)(F)F)cc2)nc1` (stereo not given), which Papp A→B [1] is on record?
Answer: The Papp A→B was 2.5 ×10⁻⁶ cm/s.

Question: And the IC50 [2]?
Answer: The IC50 was 5500 nM.

Question: And the logD (physchem)?
Answer: Its logD is 3.1.

Question: What about the Pm [3] of the same compound?
Answer: The Pm was 11.

Question: What about the microsomal CLint (in vitro) of the same compound?
Answer: Its microsomal CLint is 16 µL/min/mg.

Question: What does the source list for `CCS(=O)(=O)c1ccc(C(CC(=O)N(C)C)C(=O)Nc2ccc(C(O)(C(F)(F)F)C(F)(F)F)cc2)cc1` (stereo not given)?
Answer: Papp A→B [1]: 1.4 ×10⁻⁶ cm/s; logD (physchem): 3.1; IC50 (cells): 91 nM; Pm [3]: 24; microsomal CLint (in vitro): 5 µL/min/mg

Question: For `CCS(=O)(=O)c1ccc2c(c1)CN(C(=O)C1CCO1)C2C(=O)Nc1ccc(C(O)(C(F)(F)F)C(F)(F)F)cc1` (stereo not given), which logD (physchem) is on record?
Answer: The logD was 2.6.

Question: And the microsomal CLint (in vitro)?
Answer: The microsomal CLint was under 3 µL/min/mg.

Question: For `CC(=O)N1Cc2cc(S(=O)(=O)CCO)ccc2C1C(=O)Nc1ccc(C(O)(C(F)(F)F)C(F)(F)F)cc1` (stereo not given), which logD (physchem) is on record?
Answer: The logD was 2.1.

Question: What about the microsomal CLint (in vitro) of the same compound?
Answer: Its microsomal CLint is 3.1 µL/min/mg.

Question: Which logD (physchem) does the source give for `CNS(=O)(=O)c1ccc2c(c1)CN(C(=O)C1CCO1)C2C(=O)Nc1ccc(C(O)(C(F)(F)F)C(F)(F)F)cc1` (stereo not given) here?
Answer: The logD was 2.6.

Question: What about the microsomal CLint (in vitro) of the same compound?
Answer: Its microsomal CLint is under 3 µL/min/mg.

Question: With `CNS(=O)(=O)c1ccc2c(c1)CN(C(C)=O)C2C(=O)Nc1ccc(C(O)(C(F)(F)F)C(F)(F)F)cc1` (stereo not given) as the compound, how does the logD (physchem) read?
Answer: The logD was 2.8.

Question: And the microsomal CLint (in vitro)?
Answer: The microsomal CLint was under 3 µL/min/mg.

Question: Which logD (physchem) does the source give for `CC(=O)N1Cc2cc(S(=O)(=O)CC3(F)CC3)ccc2C1C(=O)Nc1ccc(C(O)(C(F)(F)F)C(F)(F)F)cc1` (stereo not given) here?
Answer: The logD was 3.1.

Question: What about the microsomal CLint (in vitro) of the same compound?
Answer: Its microsomal CLint is 7.9 µL/min/mg.

Question: Which logD (physchem) does the source give for `COC(=O)N1Cc2cc(S(C)(=O)=O)ccc2C1C(=O)Nc1ccc(C(O)(C(F)(F)F)C(F)(F)F)cc1` (stereo not given) here?
Answer: Its logD is 2.9.

Question: And the microsomal CLint (in vitro)?
Answer: Its microsomal CLint is under 3 µL/min/mg.

Question: Which logD (physchem) does the source give for `CCS(=O)(=O)c1ccc2c(c1)CN(C(=O)CCC#N)C2C(=O)Nc1ccc(C(O)(C(F)(F)F)C(F)(F)F)cc1` (stereo not given) here?
Answer: The logD was 2.5.

Question: And the microsomal CLint (in vitro)?
Answer: The microsomal CLint was under 3 µL/min/mg.

Question: For `CCS(=O)(=O)c1ccc(C(NC(C)=O)C(=O)Nc2ccc(C(O)(C(F)(F)F)C(F)(F)F)cc2)nc1` (stereo not given), which Papp A→B [1] is on record?
Answer: Its Papp A→B is 0.7 ×10⁻⁶ cm/s.

Question: What about the logD (physchem) of the same compound?
Answer: Its logD is 2.5.

Question: What about the IC50 (cells) of the same compound?
Answer: The IC50 was 63 nM.

Question: What about the Pm [3] of the same compound?
Answer: Its Pm is 7.7.

Question: And the microsomal CLint (in vitro)?
Answer: The microsomal CLint was under 3 µL/min/mg.

Question: What does the source list for `COCC(=O)N1Cc2cc(S(=O)(=O)CC3CC3)ccc2C1C(=O)Nc1ccc(C(O)(C(F)(F)F)C(F)(F)F)cc1` (stereo not given)?
Answer: logD (physchem): 3.2; microsomal CLint (in vitro): 19 µL/min/mg

Question: For `CC(=O)NC(C(=O)Nc1ccc(C(O)(C(F)(F)F)C(F)(F)F)cc1)c1ccc(S(C)(=O)=O)cc1` (racemic), which logD (physchem) is on record?
Answer: The logD was 2.7.

Question: What about the microsomal CLint (in vitro) of the same compound?
Answer: Its microsomal CLint is under 3 µL/min/mg.

Question: With `CCS(=O)(=O)c1ccc(C(NC(=O)Cc2ccccc2)C(=O)Nc2ccc(C(O)(C(F)(F)F)C(F)(F)F)cc2)nc1` (stereo not given) as the compound, how does the Papp A→B [1] read?
Answer: The Papp A→B was 0.9 ×10⁻⁶ cm/s.

Question: What about the IC50 [2] of the same compound?
Answer: Its IC50 is 16000 nM.

Question: And the logD (physchem)?
Answer: The logD was 4.

Question: What about the Pm [3] of the same compound?
Answer: The Pm was 29.

Question: What about the microsomal CLint (in vitro) of the same compound?
Answer: The microsomal CLint was 21 µL/min/mg.

Question: With `CCS(=O)(=O)c1ccc(C(CC(=O)NC)C(=O)Nc2ccc(C(O)(C(F)(F)F)C(F)(F)F)cc2)cc1` (stereo not given) as the compound, how does the Papp A→B [1] read?
Answer: The Papp A→B was 0.4 ×10⁻⁶ cm/s.

Question: And the logD (physchem)?
Answer: Its logD is 3.1.

Question: And the Pm [3]?
Answer: The Pm was 8.

Question: And the microsomal CLint (in vitro)?
Answer: Its microsomal CLint is under 3 µL/min/mg.

Question: Which logD (physchem) does the source give for `CC(=O)N1Cc2cc(S(=O)(=O)NC3CC3)ccc2C1C(=O)Nc1ccc(C(O)(C(F)(F)F)C(F)(F)F)cc1` (stereo not given) here?
Answer: The logD was 3.2.

Question: And the microsomal CLint (in vitro)?
Answer: Its microsomal CLint is 11 µL/min/mg.
